Measurements reported in patent publication US11591355B2 (Peloton Therapeutics, Inc., priority 2017, dated 2023).

The molecules below were run against T1, Human CD73 (Homo sapiens, UniProt P21589) (assay: CD73 Enzyme Assay). Conditions: not given.
T1 construct: purchased R&D Systems; host or cells: CHO cells
T1 sequence (P21589 27-549): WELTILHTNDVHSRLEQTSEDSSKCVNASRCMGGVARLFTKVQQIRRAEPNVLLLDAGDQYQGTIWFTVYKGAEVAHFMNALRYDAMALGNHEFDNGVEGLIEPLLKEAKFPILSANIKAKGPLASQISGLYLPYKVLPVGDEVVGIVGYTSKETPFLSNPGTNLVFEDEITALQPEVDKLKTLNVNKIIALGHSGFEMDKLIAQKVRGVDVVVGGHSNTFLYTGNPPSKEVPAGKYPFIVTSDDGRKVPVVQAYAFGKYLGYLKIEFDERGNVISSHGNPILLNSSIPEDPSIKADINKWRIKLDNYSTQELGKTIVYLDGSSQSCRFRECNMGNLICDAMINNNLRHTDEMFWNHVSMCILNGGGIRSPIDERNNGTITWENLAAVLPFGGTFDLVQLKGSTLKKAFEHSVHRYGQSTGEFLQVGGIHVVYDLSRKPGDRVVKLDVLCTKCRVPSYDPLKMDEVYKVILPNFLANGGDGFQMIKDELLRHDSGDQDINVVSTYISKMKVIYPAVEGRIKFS
Assay type: biochemical

Structure (SMILES) | IC50
O=P(COC[C@H]1O[C@@H](n2ccc3c(NC4CCCC4)nc(Cl)nc32)[C@H](O)[C@@H]1O)(Oc1ccccc1)Oc1ccccc1 [Compound 215] | > 1000 nM
CCOP(=O)(O)COC[C@H]1O[C@@H](n2cnc3c(NCc4ccccc4)ncnc32)[C@H](O)[C@@H]1O [Compound 7, [(2R,3S,4R,5R)-5-[6-(benzylamino)purin-9-yl]-3,4-dihydroxy-tetrahydrofuran-2-yl]-methoxymethyl-ethoxy-phosphinic acid] | > 1000 nM

Same assay, conditions: 0.25 nM hCD73, 25 μM AMP, kinetic read at 360 nm; read-out: CD73 Enzyme Assay IC50

Structure (SMILES) | IC50
CCc1nc(NC(C)C)c2ncn([C@@H]3O[C@H](COCP(=O)(O)O)[C@@H](O)[C@H]3O)c2n1 [Compound 41, [(2R,3S,4R,5R)-5-[2-ethyl-6-(isopropyl-amino)purin-9-yl]-3,4-dihydroxy-tetrahydro-furan-2-yl]methoxy-methylphosphonic acid] | > 1000 nM
O=C(OCOP(=O)(O)COC[C@H]1O[C@@H](n2ccc3c(NC4CCCC4)nc(Cl)nc32)[C@H](O)[C@@H]1O)N1CCOCC1 [Compound 237, [(2R,3S,4R,5R)-5-[2-chloro-4-(cyclopentyl-amino)pyrrolo[2,3-d]-pyrimidin-7-yl]-3,4-dihydroxy-tetrahydro-furan-2-yl]methoxy-methyl-(morpholine-4-carbonyloxy-methoxy)phosphinic acid] | 10 to 100 nM
O=P(O)(O)COC[C@H]1O[C@@H](n2cnc3c2ncn2ccnc32)[C@H](O)[C@@H]1O [Compound 38] | > 1000 nM
O=P(O)(O)COC[C@H]1O[C@@H](n2cnc3c(NC4CCCCC4)ncnc32)[C@H](O)[C@@H]1O [Compound 35, [(2R,3S,4R,5R)-5-[6-(cyclohexylamino)-purin-9-yl]-3,4-dihydroxy-tetrahydro-furan-2-yl]methoxy-methylphosphonic acid] | 100 to 1000 nM
O=P(O)(O)COC[C@H]1O[C@@H](n2cnc3c(NCc4ccccc4)nc(Cc4ccccc4)nc32)[C@H](O)[C@@H]1O [Compound 22, [(2R,3S,4R,5R)-5-[2-benzyl-6-(benzyl-amino)purin-9-yl]-3,4-dihydroxy-tetrahydro-furan-2-yl]methoxy-methylphosphonic acid] | 100 to 1000 nM
CN(C)CCOc1nc(NC2CCCC2)c2ccn([C@@H]3O[C@H](COCP(=O)(O)O)[C@@H](O)[C@H]3O)c2n1 [Compound 259, [(2R,3S,4R,5R)-5-[4-(cyclopentylamino)-2-[2-(dimethylamino)-ethoxy]pyrrolo[2,3-d]-pyrimidin-7-yl]-3,4-dihydroxy-tetrahydro-furan-2-yl]methoxy-methylphosphonic acid] | 100 to 1000 nM
CC(C)Oc1ncnc2c1ncn2[C@@H]1O[C@H](COCP(=O)(O)O)[C@@H](O)[C@H]1O [Compound 44, [(2R,3S,4R,5R)-3,4-dihydroxy-5-(6-isopropoxypurin-9-yl)tetrahydrofuran-2-yl]methoxymethylphosphonic acid] | > 1000 nM
O=C(O)c1nc(NCc2ccccc2)c2ncn([C@@H]3O[C@H](COCP(=O)(O)O)[C@@H](O)[C@H]3O)c2n1 [Compound 6, 6-(benzylamino)-9-[(2R,3R,4S,5R)-3,4-dihydroxy-5-(phos-phonomethoxy-methyl)tetrahydro-furan-2-yl]purine-2-carboxylic acid] | > 1000 nM
O=P(O)(O)COC[C@H]1O[C@@H](n2ccc3c(NC4CNC4)nc(Cl)nc32)[C@H](O)[C@@H]1O [Compound 245, [(2R,3S,4R,5R)-5-[4-(azetidin-3-ylamino)-2-chloro-pyrrolo[2,3-d]pyrimidin-7-yl]-3,4-dihydroxy-tetrahydro-furan-2-yl]methoxy-methylphosphonic acid] | 100 to 1000 nM
Cc1oc(=O)oc1COP(=O)(O)COC[C@H]1O[C@@H](n2ccc3c(NC4CCCC4)nc(Cl)nc32)[C@H](O)[C@@H]1O [Compound 225, [(2R,3S,4R,5R)-5-[2-chloro-4-(cyclopentyl-amino)pyrrolo[2,3-d]-pyrimidin-7-yl]-3,4-dihydroxy-tetrahydro-furan-2-yl]methoxy-methyl-[(5-methyl-2-oxo-1,3-dioxol-4-yl)-methoxy]phosphinic acid] | 10 to 100 nM
O=P(O)(O)COC[C@H]1O[C@@H](n2cnc3c(NCCCO)ncnc32)[C@H](O)[C@@H]1O [Compound 26, [(2R,3S,4R,5R)-3,4-dihydroxy-5-[6-(3-hydroxypropylamino)-purin-9-yl]tetrahydro-furan-2-yl]methoxy-methylphosphonic acid] | > 1000 nM
O=P(O)(O)COC[C@H]1O[C@@H](n2cnc3c(NCCc4ccccc4)ncnc32)[C@H](O)[C@@H]1O [Compound 29, [(2R,3S,4R,5R)-3,4-dihydroxy-5-[6-(2-phenylethylamino)-purin-9-yl]tetrahydro-furan-2-yl]methoxy-methylphosphonic acid] | 100 to 1000 nM
CC(C)(C)C(=O)COP(=O)(O)COC[C@H]1O[C@@H](n2ccc3c(NC4CCCC4)nc(Cl)nc32)[C@H](O)[C@@H]1O [Compound 223, [(2R,3S,4R,5R)-5-[2-chloro-4-(cyclopentyl-amino)pyrrolo[2,3-d]-pyrimidin-7-yl]-3,4-dihydroxy-tetrahydro-furan-2-yl]methoxy-methyl-(3,3-dimethyl-2-oxo-butoxy)phos-phinic acid] | > 1000 nM

The next lines start with the values.

IC50 | Structure (SMILES)
> 1000 nM | CCOC(=O)[C@H](C)NP(=O)(COC[C@H]1O[C@@H](n2ccc3c(NC4CCCC4)nc(Cl)nc32)[C@H](O)[C@@H]1O)N[C@@H](C)C(=O)OCC [Compound 220, ethyl (2S)-2-[[[(2R,3S,4R,5R)-5-[2-chloro-4-(cyclo-pentylamino)pyrrolo-[2,3-d]pyrimidin-7-yl]-3,4-dihydroxy-tetra-hydrofuran-2-yl]-methoxymethyl-[[(1S)-2-ethoxy-1-methyl-2-oxo-ethyl]amino]-phosphoryl]amino]-propanoate]
> 1000 nM | CC(C)OC(=O)OCOP(=O)(COC[C@H]1O[C@@H](n2ccc3c(N4CC5CCCC5C4)nc(Cl)nc32)[C@H](O)[C@@H]1O)OCOC(=O)OC(C)C (stereo partly drawn) [Compound 208, [[(2R,3S,4R,5R)-5-[4-(3,3a,4,5,6,6a-hexa-hydro-1H-cyclopenta-[c]pyrrol-2-yl)-2-chloro-pyrrolo[2,3-d]-pyrimidin-7-yl]-3,4-dihydroxy-tetrahydro-furan-2-yl]methoxy-methyl-(isopropoxy-carbonyloxymethoxy)-phosphorl]oxymethyl isopropyl carbonate]
> 1000 nM | O=P(O)(O)COC[C@H]1O[C@@H](n2cnc3c2ncn2cnnc32)[C@H](O)[C@@H]1O [Compound 37]
> 1000 nM | CC(C)OC(=O)OCOP(=O)(COC[C@H]1O[C@@H](n2ccc3c(NC4CCCC4)nc(Cl)nc32)[C@H](O)[C@@H]1O)OCOC(=O)OC(C)C [Compound 214, [[(2R,3S,4R,5R)-5-[2-chloro-4-(cyclopentyl-amino)pyrrolo[2,3-d]-pyrimidin-7-yl]-3,4-dihydroxy-tetrahydro-furan-2-yl]methoxy-methyl-(isopropoxy-carbonyloxymethoxy)-phosphoryl]oxymethyl-isopropyl carbonate]
> 1000 nM | O=P(O)(O)COC[C@H]1O[C@@H](n2ccc3c(N[C@H]4CCNC4)nc(Cl)nc32)[C@H](O)[C@@H]1O [Compound 242, [(2R,3S,4R,5R)-5-[2-chloro-4-[[(3S)-pyrrolidin-3-yl]-amino]pyrrolo[2,3-d]-pyrimidin-7-yl]-3,4-dihydroxy-tetrahydro-furan-2-yl]methoxy-methylphosphonic acid]
> 1000 nM | CCCCCCCCCCCCCCCCOCCCOP(=O)(O)COC[C@H]1O[C@@H](n2ccc3c(NC4CCCC4)nc(Cl)nc32)[C@H](O)[C@@H]1O [Compound 246, [(2R,3S,4R,5R)-5-[2-chloro-4-(cyclopentyl-amino)pyrrolo[2,3-d]-pyrimidin-7-yl]-3,4-dihydroxy-tetrahydro-furan-2-yl]methoxy-methyl-(3-hexadecoxy-propoxy)phosphinic acid]
100 to 1000 nM | N#Cc1nc(NC2CCCC2)c2c(C#N)cn([C@@H]3O[C@H](COCP(=O)(O)O)[C@@H](O)[C@H]3O)c2n1 [Compound 210, [(2R,3S,4R,5R)-5-[2,5-dicyano-4-(cyclopentyl-amino)pyrrolo[2,3-d]-pyrimidin-7-yl]-3,4-dihydroxy-tetrahydro-furan-2-yl]methoxy-methylphosphonic acid]
> 1000 nM | NCCNc1ncnc2c1ncn2[C@@H]1O[C@H](COCP(=O)(O)O)[C@@H](O)[C@H]1O [Compound 25, [(2R,3S,4R,5R)-5-[6-(2-aminoethylamino)-purin-9-yl]-3,4-dihydroxy-tetrahydro-furan-2-yl]methoxy-methylphosphonic acid]
> 1000 nM | CC(C)Nc1nc(Cl)nc2c1ncn2[C@@H]1O[C@H](COCP(=O)(O)O)[C@H]2OC(C)(C)O[C@H]21 [Compound 14, [(3aR,4R,6R,6aR)-4-[2-chloro-6-(isopropyl-amino)purin-9-yl]-2,2-dimethyl-3a,4,6,6a-tetrahydrofuro[3,4-d] [1,3]dioxol-6-yl]-methoxymethylphos-phonic acid]

Same assay, conditions: read-out: IC50

Structure (SMILES) | IC50
Nc1ncnc2c1ncn2[C@@H]1O[C@H](COP(=O)(O)CP(=O)(O)O)[C@@H](O)[C@H]1O [adenosine 5′-(α,β-methylene)diphosphate, reference compound] | 50 nM
